US12503436B2, “Compounds and compositions for treating conditions associated with STING activity” (NOVARTIS PHARMA AG, priority 2021, dated 2025)

Molecular target: STING (Homo sapiens, UniProt Q86WV6, G230A/H232R/R293Q/R71H)
Assay: STING reporter assay in THP1-Dual KO-IFNAR2 cells (2′3′cGAMP stimulation, luciferase reporter)
Format: cell-based
Conditions: 15 μM 2′3′cGAMP stimulation, 24 h, read-out: Pharmaron, THP1_IFNAR2 STING 24 h Luci Normalized: GeoMean EC50
Procedure, shortened: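 EC50 from secreted luciferase (QUANTI-Luc Plus luminescence of supernatant) after 24 h at 37 °C, 5% CO2. Cells: THP1-Dual KO-IFNAR2, treated with compound (0.0017-100 μM final) plus lipofected 2′3′cGAMP at 15 μM final.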

Sequence of STING (Q86WV6 whole entry R71H/G230A/H232R/R293Q): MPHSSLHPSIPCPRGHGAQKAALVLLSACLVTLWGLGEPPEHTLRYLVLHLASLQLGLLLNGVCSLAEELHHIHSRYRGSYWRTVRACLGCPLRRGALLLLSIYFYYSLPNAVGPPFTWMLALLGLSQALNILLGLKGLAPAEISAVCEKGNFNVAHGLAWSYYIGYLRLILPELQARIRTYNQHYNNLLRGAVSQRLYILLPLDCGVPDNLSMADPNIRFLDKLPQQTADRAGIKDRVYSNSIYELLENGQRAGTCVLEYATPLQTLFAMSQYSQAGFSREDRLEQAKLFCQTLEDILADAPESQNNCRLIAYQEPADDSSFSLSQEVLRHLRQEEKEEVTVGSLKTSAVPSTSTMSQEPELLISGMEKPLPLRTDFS

Row | EC50 [nM] | SMILES
1 | 1000 to 5000 | CC(=O)Nc1c[nH]c2ccc(CCOc3ccc4c(c3)N(Cc3ccccc3)C(=O)CS4)cc12 [Compound 386, N-(5-(2-((4-benzyl-3-oxo-3,4-dihydro-2H-benzo[b][1,4]thiazin-6-yl)oxy)ethyl)-1H-indol-3-yl)acetamide]
2 | 200 to 1000 | CC(=O)Nc1c[nH]c2ccc(COCc3ccc(Cl)c(Cl)c3)cc12 [Compound 101, N-(5-(((3,4-dichlorobenzyl)oxy)methyl)-1H-indol-3-yl)acetamide]
3 | 5000 to 100000 | CC(=O)Nc1c[nH]c2ccc(COCC34CC(CN3CC(F)(F)F)C4)cc12 [Compound 492, N-(5-(((2-(2,2,2-trifluoroethyl)-2-azabicyclo[2.1.1]hexan-1-yl)methoxy)methyl)-1H-indol-3-yl)acetamide]
4 | 200 to 1000 | C[C@H]1C[C@H](C(=O)Nc2c[nH]c3ccc(OCC[C@@H]4C[C@@H]5CN(CC(F)(F)F)C[C@@H]5C4)cc23)C1 [Compound 341, (1r,3R)-3-methyl-N-(5-(2-((3aR,5r,6aS)-2-(2,2,2-trifluoroethyl)octahydrocyclopenta[c]pyrrol-5-yl)ethoxy)-1H-indol-3-yl)cyclobutane-1-carboxamide]
5 | 40 to 200 | O=C(Nc1c[nH]c2ccc(OCCc3ccc(C(F)(F)F)cc3)cc12)C1CC(Cl)C1 (stereo not shown) [Compound 217, 3-chloro-N-(5-(4-(trifluoromethyl)phenethoxy)-1H-indol-3-yl)cyclobutane-1-carboxamide]
6 | 200 to 1000 | N#CC1CCC1C(=O)Nc1c[nH]c2ccc(CCOc3ccc(C(F)(F)F)cc3)cc12 (stereo not shown) [Compound 390, 2-cyano-N-(5-(2-(4-(trifluoromethyl)phenoxy)ethyl)-1H-indol-3-yl)cyclobutane-1-carboxamide]
7 | 40 to 200 | CC(=O)Nc1c[nH]c2ccc(COCc3ccc(C(F)(F)F)cc3)cc12 [Compound 111, N-(5-(((4-(trifluoromethyl)benzyl)oxy)methyl)-1H-indol-3-yl)acetamide]
8 | 200 to 1000 | CC1(C)CC1C(=O)Nc1c[nH]c2ccc(CCOc3ccc(C(F)(F)F)cc3)cc12 (stereo not shown) [Compound 397, 2,2-dimethyl-N-(5-(2-(4-(trifluoromethyl)phenoxy)ethyl)-1H-indol-3-yl)cyclopropane-1-carboxamide]
9 | 5000 to 100000 | CC1(C(=O)Nc2c[nH]c3ccc(OCc4ccc(C(F)(F)F)cc4)cc23)CCNCC1 [Compound 528, 4-methyl-N-(5-((4-(trifluoromethyl)benzyl)oxy)-1H-indol-3-yl)piperidine-4-carboxamide]
10 | 1000 to 5000 | CC(=O)Nc1c[nH]c2ccc(CCOc3ccc(C(F)(F)F)cc3)nc12 [Compound 255, N-(5-(2-(4-(trifluoromethyl)phenoxy)ethyl)-1H-pyrrolo[3,2-b]pyridin-3-yl)acetamide]
11 | 1000 to 5000 | CC(=O)Nc1c[nH]c2ccc(OCCc3sc(C(F)(F)F)nc3C)cc12 [Compound 484, N-(5-(2-(4-methyl-2-(trifluoromethyl)thiazol-5-yl)ethoxy)-1H-indol-3-yl)acetamide]
12 | 200 to 1000 | CC(=O)Nc1c[nH]c2ccc(OCC3CCc4ccc(C(F)(F)F)cc4C3)cc12 (stereo not shown) [Compound 437, N-(5-((7-(trifluoromethyl)-1,2,3,4-tetrahydronaphthalen-2-yl)methoxy)-1H-indol-3-yl)acetamide]
13 | 1000 to 5000 | CC(=O)Nc1c[nH]c2ccc(OCC[C@@H]3C[C@@H]4CN(CC(F)F)C[C@@H]4C3)cc12 [Compound 313, N-(5-(2-((3aR,5r,6aS)-2-(2,2-difluoroethyl)octahydrocyclopenta[c]pyrrol-5-yl)ethoxy)-1H-indol-3-yl)acetamide]
14 | 200 to 1000 | CC1(C(=O)Nc2c[nH]c3ccc(OCC[C@@H]4C[C@@H]5CN(CC(F)(F)F)C[C@@H]5C4)cc23)CCOC1 (stereo partly drawn) [Compound 306, 3-methyl-N-(5-(2-((3aR,5r,6aS)-2-(2,2,2-trifluoroethyl)octahydrocyclopenta[c]pyrrol-5-yl)ethoxy)-1H-indol-3-yl)tetrahydrofuran-3-carboxamide]
15 | 200 to 1000 | CC1(C(=O)Nc2c[nH]c3ccc(C(O)CCc4ccc(C(F)(F)F)cc4)cc23)CC1 (stereo not shown) [Compound 172, N-(5-(1-hydroxy-3-(4-(trifluoromethyl)phenyl)propyl)-1H-indol-3-yl)-1-methylcyclopropane-1-carboxamide]
16 | 1000 to 5000 | CC(=O)Nc1c[nH]c2ccc(CCOc3ccccc3C3(C)CCN(CC(F)(F)F)CC3)cc12 [Compound 208, N-(5-(2-(2-(4-methyl-1-(2,2,2-trifluoroethyl)piperidin-4-yl)phenoxy)ethyl)-1H-indol-3-yl)acetamide]
17 | 200 to 1000 | CC(=O)Nc1c[nH]c2ccc(CCOc3cnc4ccc(OC(F)(F)F)cc4c3)cc12 [Compound 480, N-[5-(2-{[6-(trifluoromethoxy)quinolin-3-yl]oxy}ethyl)-1H-indol-3-yl]acetamide]

Row | SMILES | EC50 [nM]
18 | C[C@H]1C[C@@H](C(=O)Nc2c[nH]c3ccc(O[C@H]4C[C@@H](c5ccc(C(F)(F)F)cc5)C4)cc23)C1 [Compound 335, cis-3-methyl-N-(5-(cis-3-(4-(trifluoromethyl)phenyl)cyclobutoxy)-1H-indol-3-yl)cyclobutane-1-carboxamide] | 200 to 1000
19 | O=C(Nc1c[nH]c2ccc(O[C@H]3C[C@H](c4ccc(C(F)(F)F)nc4)C3)cc12)[C@H]1C[C@H](CO)C1 [Compound 553, trans-3-(hydroxymethyl)-N-(5-(trans-3-(6-(trifluoromethyl)pyridin-3-yl)cyclobutoxy)-1H-indol-3-yl)cyclobutane-1-carboxamide] | 200 to 1000
20 | CC1(C)CC1C(=O)Nc1c[nH]c2ccc(O[C@H]3C[C@H](c4ccc(C(F)(F)F)cc4)C3)cc12 (stereo partly drawn) [Compound 563, 2,2-dimethyl-N-(5-(trans-3-(4-(trifluoromethyl)phenyl)cyclobutoxy)-1H-indol-3-yl)cyclopropane-1-carboxamide] | 40 to 200
21 | C[C@]1(C(=O)Nc2c[nH]c3ccc(O[C@H]4C[C@H](c5ccc(C(F)(F)F)cc5)C4)cc23)CC[C@H](O)CC1 (single isomer, unassigned) [Compound 425, trans-4-hydroxy-1-methyl-N-(5-(trans-3-(4-(trifluoromethyl)phenyl)cyclobutoxy)-1H-indol-3-yl)cyclohexane-1-carboxamide] | 200 to 1000
22 | O=C(Nc1c[nH]c2ccc(O[C@H]3C[C@@H](c4ccc(C(F)(F)F)cc4)C3)cc12)C1CC1(F)F (stereo partly drawn) [Compound 364, 2,2-difluoro-N-(5-(cis-3-(4-(trifluoromethyl)phenyl)cyclobutoxy)-1H-indol-3-yl)cyclopropane-1-carboxamide] | 40 to 200
